No end group written: not given here.
Legend:
[1] = biological target: T1, β-Gal (Escherichia coli, UniProt P00722); conditions: 3-state model; 25° C.; 0-4 μM peptide
Procedure: In this in vitro experiment the affinity of different interferor peptides was measured for binding to β-gal by means of surface plasmon resonance (SPR). SPR experiments were performed at 25° C. using a Biacore T100 equipped with CM5 sensor chip (GE Healthcare.). Coupling reagents (N-ethyl-N′-(3-dimethylaminopropyl)carbodiimide (EDC), N-hydroxysuccinimide (NHS) and ethanolamine-HCI) were purchased from GE Healthcare. BSA and β-gal were purchased from Sigma-Aldrich and Roche Diagnostics, respectively. […] The proteins BSA and β-Gal were immobilized respectively, in the reference and sample channels on a CM5 sensor chip by standard amine coupling chemistry at a flow of 10 μl min^−1. The carboxymethyl dextran surface was activated by the injection of a 1:1 ratio of EDC and NHS for 7 minutes. The proteins were diluted in 10 mM sodium-acetate buffer, pH 4.5 to a final concentration of 0.2 mg m1^−1 and injected in short pulses over the activated surface until the immobilization levels reached 4000 RU or 8000 RU, for BSA and β-Gal, respectively. The remaining reactive groups were blocked with 1 M ethanolamine, pH 8. After completion of coupling, the surface was regenerated with short pulses of 50 mM NaOH and 8 M urea to remove non-covalently attached proteins. […] The peptides, dissolved in the running buffer (10 mM sodium phosphate, pH 6.8, 150 mM NaCI, 3 mM EDTA and 0.015% Tween 20) at a concentration of 1 μM, were injected for 60 s at a flow rate of 30 μl min^−1 and then allowed to dissociate for 600 s. The injection was repeated on the same surface as well as on independently immobilized surfaces. The surface was regenerated between each cycle by 30 s pulses of i) 50 mM NaOH, and ii) 8 M urea, and was allowed to stabilize for 400 s before the next cycle.
The peptide dissolved in the running buffer was injected for 60 s at a flow-rate of 301.11min′ over the reference (BSA) and sample (β-Gal) surfaces in a range of concentrations (0-4 μM, with one internal replicate) and were then allowed to dissociate for 600 s. The concentration series were repeated on the same surface (three times) as well as on independently immobilized surfaces. The surface was regenerated between each cycle by 30 s pulses of i) 50 mM NaOH, and ii) 8 M urea, and was allowed to stabilize for 400 s before the next cycle.
The data were globally fitted to a three-state model, using the Biacore T100 software, assuming an initial encounter between the peptide in solution and the protein on the chip followed by a two-step rearrangement before an identical binding site becomes available at the growing β-sheet.

[2] = biological target: T1, β-Gal; conditions: equimolar concentrations of enzyme and interferor (10 μM)
Procedure: Enzyme functional readout was performed using the substrate fluorescein-di-I3-D-galactopyranoside (FDG), which is non-fluorescent but on enzymatic cleavage by β-Gal fluorescent fluorescein is liberated with intensity proportional to the catalytic activity.

[3] = biological target: T2, mVEGFR2 (Mus musculus, UniProt P35918); assay: Immunohistochemical staining of mVEGFR2 in HEK293 cells (cellular localization); format: cell-based; conditions: 10 μM, overnight treatment
T2 construct: expressed in transfected cells; host or cells: HEK293
T2 sequence (P35918 20-1345): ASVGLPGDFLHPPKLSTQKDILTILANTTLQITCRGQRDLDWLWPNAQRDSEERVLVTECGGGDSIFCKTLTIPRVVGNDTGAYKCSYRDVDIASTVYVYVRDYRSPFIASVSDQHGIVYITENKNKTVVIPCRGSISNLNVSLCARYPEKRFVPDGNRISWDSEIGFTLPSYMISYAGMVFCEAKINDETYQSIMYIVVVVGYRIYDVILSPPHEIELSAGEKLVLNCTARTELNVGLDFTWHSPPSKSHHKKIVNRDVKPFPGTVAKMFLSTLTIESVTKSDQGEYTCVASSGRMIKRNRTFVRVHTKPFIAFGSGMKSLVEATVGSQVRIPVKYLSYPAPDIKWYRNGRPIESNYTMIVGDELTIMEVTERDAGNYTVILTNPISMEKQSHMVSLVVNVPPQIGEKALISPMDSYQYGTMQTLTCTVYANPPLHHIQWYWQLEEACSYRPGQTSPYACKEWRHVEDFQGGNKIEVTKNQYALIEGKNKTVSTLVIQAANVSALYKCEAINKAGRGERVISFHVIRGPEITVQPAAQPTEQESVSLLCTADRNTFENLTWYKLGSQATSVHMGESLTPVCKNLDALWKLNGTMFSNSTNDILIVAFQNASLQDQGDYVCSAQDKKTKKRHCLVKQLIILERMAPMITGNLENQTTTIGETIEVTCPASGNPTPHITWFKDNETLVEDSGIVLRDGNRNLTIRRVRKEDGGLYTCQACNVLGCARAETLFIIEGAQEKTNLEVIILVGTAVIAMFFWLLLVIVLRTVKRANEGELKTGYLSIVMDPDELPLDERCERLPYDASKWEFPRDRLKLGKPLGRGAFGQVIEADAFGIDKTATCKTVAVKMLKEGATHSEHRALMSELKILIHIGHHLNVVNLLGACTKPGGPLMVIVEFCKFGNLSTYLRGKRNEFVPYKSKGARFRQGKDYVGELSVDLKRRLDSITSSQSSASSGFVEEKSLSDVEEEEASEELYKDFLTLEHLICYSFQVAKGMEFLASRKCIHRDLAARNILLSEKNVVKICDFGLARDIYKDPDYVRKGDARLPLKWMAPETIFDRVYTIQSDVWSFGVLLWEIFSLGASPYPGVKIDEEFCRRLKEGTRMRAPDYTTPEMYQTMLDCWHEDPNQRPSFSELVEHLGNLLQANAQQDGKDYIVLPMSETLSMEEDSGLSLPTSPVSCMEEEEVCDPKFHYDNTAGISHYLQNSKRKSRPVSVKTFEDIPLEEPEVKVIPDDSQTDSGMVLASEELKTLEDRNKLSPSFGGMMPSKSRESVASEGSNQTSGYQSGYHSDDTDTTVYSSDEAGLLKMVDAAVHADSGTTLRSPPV
Procedure: To better understand the cellular mechanism of peptide inhibition, a preliminary experiment was performed in which cells were stained with an anti-VEGFR2 antibody to track the cellular localization.

[4] = tested on: EGFR family; assay: EGF-induced ERK1/2 phosphorylation in HeLa cells (cross reactivity of VEGFR2 peptides); format: cell-based, human; conditions: EGF 25 ng/ml
Procedure: As a next step, to test the specificity of the VEGFR2 peptides, we tested their cross reactivity towards the EGFR family. Therefore, HeLa cells were treated with peptide B8 and B12 and subsequently stimulated with EGF (25ng/ml).

[5] = tested on: human erythrocytes; format: cell-based
Excerpt: The detergent Tween was used as a positive control, causing 100% lysis of RBCs.

[6] = tested on: S. aureus ATCC 27853; assay: Invasion assay: bacteria in infected HCT116 cell monolayers (CFU count); format: cell-based; conditions: 100 μg/ml, 90 minutes infection, 1 h treatment
Procedure: In this assay HCT116 cell monolayers (a human colon tumor cell line) were cultured at the bottom of a microwell plate. The next day fresh S. aureus ATCC 27853 bacteria were added (approximately 10^6 CFU/ml) and a negative uninfected control included. After 90 minutes of infection different dilution of peptides were added and the cultures were incubated for another hour. As a positive control Gentamycin was used, given that it has a good intracellular activity. Each well was washed with pre-warmed physiological water to get rid of any extra-cellular bacteria, followed by 1% Triton treatment to release all entrapped bacteria from mammalian cells. The content of the well was serially diluted and plated on TSA agar plates for CFU count.

[7] = tested on: S. aureus
Procedure: (§1) Bacteria were grown in a shaking incubator at 37° C. and 160rpm in 50 ml BHI , using individual colonies retrieved from a fresh overnight TSA-sheep blood plate. The cultures were grown to a density of approximately 1×10^8cells/ml and then diluted to 5×10^5 cells/ml in CAMHB (Mc Farland 0.5). Each well contained 100p.I (50p.I of peptide containing MHB plus 50 μl inoculum). The final cell density was 1×10^5 to 5×10^5/ml. After addition of the cell suspension, plates were incubated at 37° C. for 18 to 24 hours. The optical density at 590 nm (OD590) of each well was measured after 5 seconds of shaking the plate using Perkin Elmer spectrophotometer (1420 Multilabel Counter Vicotr 3). […] Each well, where no growth was observed, was also plated on TSA-sheep blood agar plates, incubated at 37° C. overnight and visually inspected.
(§2) A microbroth dilution method was used with twofold serial dilutions in CAMHB (according to EMEA guidelines) was used for screening of peptide activity, with concentrations ranging from 0.3 μg/mIto 200 μg/ml.

[8] = tested on: Corynebacterium; conditions: peptides with purity of >95%
Procedure: as §1, §2

[9] = tested on: Candida albicans SC5314; assay: In vitro mature C. albicans biofilm formation on polystyrene (XTT reduction assay); format: cell-based; conditions: 250 μM, 50 μM and 10 μM; peptide during adhesion only or during whole biofilm development; p<0.001
Procedure: The initial screening and search for optimal Als3 candidate interferors was based on the C. albicans SC5314 adhesion assay on 96-well polystyrene plates upon administration of all the peptides at three different concentrations (250 μM, 50 μM and 10 μM). Based on the results obtained with this adhesion assay, we also tested the effect of peptides on mature biofilm development. The final election of the most optimal candidate interferor peptides was based on the results showing reduction in adhesion and mature biofilm formation caused by the lowest concentration of the peptide tested (10 μM or 2.5 μM).
In a next step, lower concentrations of peptide F9 (50 μM, 10 μM and 2.5 μM) were also tested. […] Both assays were performed in 96-well polystyrene plates and quantified by the XTT reduction assay (see material and methods section).
In vitro C. albicans biofilm was studied on three different types of biomaterials, namely flat bottom 96-well polystyrene plate (Greiner Bio-One, Germany), silicone (CS Hyde, USA) and polyurethane triple lumen intravenous catheters (2.4mm diameter) (Arrow International Reading, USA). […] After that, the biofilms were washed twice with 1×PBS and quantified.
The metabolic activity of Candida cells within in vitro biofilms was studied using the XTT reduction assay. […] The intensity of colorimetric change was measured by spectrophotometer (Spectra max Plus 384) at 490 nm. […]

[10] = tested on: E. cloacae
[11] = tested on: S. epidermidis
Procedure: as §1, §2

T1 sequence (P00722 2-1024 with the stated changes limits assumed): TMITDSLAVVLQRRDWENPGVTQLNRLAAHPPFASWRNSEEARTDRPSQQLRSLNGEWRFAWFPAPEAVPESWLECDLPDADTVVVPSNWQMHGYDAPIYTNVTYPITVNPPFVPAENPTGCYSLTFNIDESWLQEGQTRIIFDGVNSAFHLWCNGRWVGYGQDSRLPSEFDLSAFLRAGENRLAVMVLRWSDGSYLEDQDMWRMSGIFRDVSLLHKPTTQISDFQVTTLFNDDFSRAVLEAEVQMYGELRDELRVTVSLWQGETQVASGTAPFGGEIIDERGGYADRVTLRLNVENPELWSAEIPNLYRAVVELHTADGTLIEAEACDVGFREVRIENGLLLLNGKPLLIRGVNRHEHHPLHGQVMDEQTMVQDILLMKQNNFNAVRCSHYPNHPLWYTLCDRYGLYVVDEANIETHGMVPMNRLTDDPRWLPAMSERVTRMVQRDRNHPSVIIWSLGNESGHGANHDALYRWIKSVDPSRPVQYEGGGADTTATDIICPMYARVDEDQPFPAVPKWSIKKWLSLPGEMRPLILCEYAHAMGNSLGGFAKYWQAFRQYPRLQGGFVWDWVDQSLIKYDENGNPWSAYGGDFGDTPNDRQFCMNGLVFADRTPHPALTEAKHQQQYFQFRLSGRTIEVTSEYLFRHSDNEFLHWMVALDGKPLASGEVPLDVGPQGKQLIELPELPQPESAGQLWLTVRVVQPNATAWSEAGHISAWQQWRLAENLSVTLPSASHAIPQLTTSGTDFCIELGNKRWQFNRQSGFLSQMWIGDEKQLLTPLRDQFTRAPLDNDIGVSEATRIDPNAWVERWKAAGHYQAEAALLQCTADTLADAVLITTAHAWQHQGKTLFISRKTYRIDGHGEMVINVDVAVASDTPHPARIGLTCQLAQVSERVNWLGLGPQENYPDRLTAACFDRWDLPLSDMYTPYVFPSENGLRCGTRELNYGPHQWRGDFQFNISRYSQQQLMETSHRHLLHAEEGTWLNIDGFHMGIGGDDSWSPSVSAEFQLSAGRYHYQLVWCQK

Substance: (His)6~RVIIWSLGNR [Tango 2 peptide]
- ka1 [1]: 2.744E+4
- ka1 (second value printed) [1]: 0.02359
- ka3 [1]: 0.005491
- kd1 [1]: 0.4123
- kd2 [1]: 0.02509
- kd3 [1]: 0.002654
- enzymatic activity of β-galactosidase [2]: complete inhibition of enzymatic activity

Substance: DLAVALWFDPPDLAVALWFD [B8]
- cellular localization of VEGFR2 [3]: no longer present on the cell surface
- ERK1/2 phosphorylation after EGF stimulation [4]: do not inhibit ERK1/2 phosphorylation

Substance: RFFIGLSRRGSRLFNFLKR [Hit57A]
- hemolytic activity [5]: no significant hemolytic activity at clinically relevant concentrations
- numbers of bacteria in infected cell monolayers [6]: effectively reduced the numbers of bacteria in infected cell monolayers
- MIC [7]: 50 µg/mL
- MIC in presence of 50% FBS [7]: 100 µg/mL
- MIC values against MRSA 326 [7]: 6 µg/mL
- MIC values against Corynebacterium [8]: Not active

Substance: RNGIVIVATTR [E1]
- biofilm formation (metabolic activity compared to control) [9]: significant reduction in biofilm formation

Substance: RRLFNFLKRGSRLFNFLKR [Hit24]
- MIC [10]: 25 µg/mL
- MIC values against S.epidermidis ATCC 12228 [11]: 1.5 µg/mL
- hemolytic activity [5]: no significant hemolytic activity at clinically relevant concentrations
- MIC values against S.aureus ATCC 29213 [7]: 12.5 µg/mL
